{
  "source": "patent US20260374773A1",
  "about": "“MULTI-CYCLIC IRAK AND FLT3 INHIBITING COMPOUNDS AND USES THEREOF” (CHILDREN'S HOSPITAL MEDICAL CENTER, priority 2022, published 2026)",
  "data": [
    {"test_system": "THP1 cells", "assay": "Combination drug screening with venetoclax, Cell Titer Glo, THP1", "assay_type": "cell-based", "settings": "compound 0-0.1 μM, venetoclax 0-20 μM, 10 × 10, 48 h, negative = synergy", "experimental": "(§1) Combination drug therapy has the potential to produce enhanced effects with lower side effects not obtained using either agent alone, or beyond the additive effect of the different concentrations of the two different agents. To determine whether enhanced effects are observed in different drug combinations, combination drug screening was performed as previously described (Mathews-Griner, L. A. et al., Proc. Nat. Acad. Sci., 2014, 111:2349-2354; Lin, G. L. et al., Sci. Trans. Med., 2019, 11: eaaw0064). Briefly, 10 nL of compounds were acoustically dispensed into 1536-well white polystyrene tissue culture-treated plates with an Echo 550 acoustic liquid handler (Labcyte). Cells were then added to compound-containing plates at a density of 500-cells/well in 5 μL of medium. A 10-point custom concentration range was used for all listed drugs in a 10×10 matrix. Plates were incubated for 48 hours at standard incubator conditions covered by a stainless steel gasketed lid to prevent evaporation. 48 hours post compound addition, 3 μL of Cell Titer Glo (Promega) were added to each well and plates were incubated at room temperature for 15 minutes with the stainless-steel lid in place. Luminescence readings were taken using a Viewlux imager (PerkinElmer) with a 2 second exposure time per plate.\n(§2) Each compound was studied in combination with venetoclax at two concentration ranges of compound and venetoclax, respectively (for a total of 4 combination dose-response curves). The dose combinations that yielded the optimal synergy score, measured as excess HSA, which are reported in Tables 23 and 24 for the FLT3 mutant cell line MOLM14 (D835Y) and the FLT3 WT cell line THP1, respectively.\n(§3) Table 24 provides combination outcomes for representative compounds with venetoclax in the Cell Titer Glo assay in THP1 (FLT3 wild type) cells at 48 hours. The table provides relative excess HSA values for compounds of the disclosure used in combination with venetoclax compared to gilteritinib hemifumarate used in combination with venetoclax. A negative excess HSA score illustrates that the drug combination is better than either drug alone, wherein greater synergy is observed at larger negative values of the excess HSA score.\n(§4) Excess HSA is a measure of synergy vs. additivity or antagonism, wherein a negative excess HSA value is indicative of synergy. More information on excess HSA scores can be found in Vlot, Anna H. C. et al., Drug Discovery Today, 2019, 24(12):2286-2298. […] However, different methodologies may yield different numerical scores, and different definitions of what constitutes a deviation from mere additivity vs true drug synergy. The large negative excess HSA values provided in Tables 23 and 24 illustrate that multiple members of this structural class synergize with venetoclax. The degree to which combination therapy has to potential to produce enhanced effects with lower side effects not obtained using either agent alone, or beyond the additive effect of the different concentrations of the two different agents depends on the nature of the drugs used in the combination, and the specific doses/concentrations at which they are ultimately used in the therapeutic regimen. A negative excess HSA score illustrates that the drug combination is better than either drug alone (at the concentrations being studied). […] However, the utility in certain drug combinations vs. others should not be distinguished based on cutoffs between excess HSA scores, because the score itself is only a relative indicator that is completely dependent on experimental design and is not an absolute number. Furthermore, the concept of what constitutes clinically meaningful drug synergy is something that is still being debated, not only between pharmacologists and physicians, but amongst pharmacologists themselves. […]", "values": [
      {"smiles": "COc1cn2ncc(-c3nc(N[C@@H]4CCCNC4)ccc3F)c2nc1C1CC1", "note": "[Compound 2, (R)-6-(5-cyclopropyl-6-methoxypyrazolo[1,5-a]pyrimidin-3-yl)-5-fluoro-N-(piperidin-3-yl)pyridin-2-amine]", "Excess HSA": "−990.8"},
      {"smiles": "COc1cn2ncc(-c3nc(N[C@@H]4CCCNC4)ncc3F)c2nc1C1CC1", "note": "[Compound 14a, (R)-4-(5-cyclopropyl-6-methoxypyrazolo[1,5-a]pyrimidin-3-yl)-5-fluoro-N-(piperidin-3-yl)pyrimidin-2-amine]", "Excess HSA": "−1210"}
    ]},
    {"test_system": "THP1 cells", "assay": "Combination drug screening with venetoclax, Cell Titer Glo, THP1", "assay_type": "cell-based", "settings": "compound 0-10 μM, venetoclax 0-2 μM, 10 × 10, 48 h, negative = synergy", "experimental": "as §1, §2, §3, §4", "values": [
      {"smiles": "COc1cn2ncc(-c3nc(N[C@H]4CNCC[C@@H]4F)c(F)cc3F)c2nc1C1CC1", "note": "[Compound 22, 6-(5-cyclopropyl-6-methoxypyrazolo[1,5-a]pyrimidin-3-yl)-3,5-difluoro-N-((3S,4S)-4-fluoropiperidin-3-yl)pyridin-2-amine]", "Excess HSA": "−850.4"},
      {"smiles": "COc1cn2ncc(-c3ccnc(N[C@H]4CNCC[C@@H]4F)n3)c2nc1C(C)(C)O", "note": "[Compound 3a, 2-(3-(2-(((3S,4S)-4-fluoropiperidin-3-yl)amino)pyrimidin-4-yl)-6-methoxypyrazolo[1,5-a]pyrimidin-5-yl)propan-2-ol]", "Excess HSA": "−1645"},
      {"smiles": "COc1cn2ncc(-c3nc(N[C@H]4CNCC[C@@H]4F)ncc3F)c2nc1C(C)(C)O", "note": "[Compound 6a, 2-(3-(5-fluoro-2-(((3S,4S)-4-fluoropiperidin-3-yl)amino)pyrimidin-4-yl)-6-methoxypyrazolo[1,5-a]pyrimidin-5-yl)propan-2-ol]", "Excess HSA": "−786.4"},
      {"smiles": "COc1cn2ncc(-c3nc(N[C@H]4CNCC[C@@H]4F)ncc3F)c2nc1C1CC1", "note": "[Compound 15a, 4-(5-cyclopropyl-6-methoxypyrazolo[1,5-a]pyrimidin-3-yl)-5-fluoro-N-((3S,4S)-4-fluoropiperidin-3-yl)pyrimidin-2-amine]", "Excess HSA": "−861.1"}
    ]},
    {"test_system": "THP1 cells", "assay": "Combination drug screening with venetoclax, Cell Titer Glo, THP1", "assay_type": "cell-based", "settings": "compound 0-10 μM, venetoclax 0-20 μM, 10 × 10, 48 h, negative = synergy", "experimental": "as §1, §2, §3, §4", "values": [
      {"smiles": "COc1cn2ncc(-c3cncc(N[C@H]4CNCC[C@@H]4F)n3)c2nc1C1CC1", "note": "[Compound 12a, 6-(5-cyclopropyl-6-methoxypyrazolo[1,5-a]pyrimidin-3-yl)-N-((3S,4S)-4-fluoropiperidin-3-yl)pyrazin-2-amine]", "Excess HSA": "−1869"},
      {"smiles": "COc1cn2ncc(-c3ccnc(N[C@H]4CNCC[C@@H]4F)n3)c2nc1C1CC1", "note": "[Compound 7a, 4-(5-cyclopropyl-6-methoxypyrazolo[1,5-a]pyrimidin-3-yl)-N-((3S,4S)-4-fluoropiperidin-3-yl)pyrimidin-2-amine]", "Excess HSA": "−1947"},
      {"smiles": "COc1cn2ncc(-c3nc(N[C@H]4CNC[C@@H]4F)c(F)cc3F)c2nc1C1CC1", "note": "[Compound 24, 6-(5-cyclopropyl-6-methoxypyrazolo[1,5-a]pyrimidin-3-yl)-3,5-difluoro-N-((3S,4S)-4-fluoropyrrolidin-3-yl)pyridin-2-amine]", "Excess HSA": "−1766"}
    ]}
  ]
}
